Source: ChEMBL document CHEMBL1201862, “PubChem BioAssay data set” (2004)
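Briefly, cells in 96-well plates were exposed to five compound concentrations for 48 h, and endpoints were estimated by linear interpolation. Here, GI50 denotes the concentration required for 50% inhibition of growth.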 Active and inactive are the calls of the source. Rule as the data show it: active = GI50 up to about 1.1 µM and inactive = higher.

Columns and labels:
Experiment in all cases: NCI anticancer screen, dose series, 48 h
NCI/ADR-RES = test system: NCI/ADR-RES
SNB-19 = test system: SNB-19
ACHN = test system: ACHN
M14 = test system: M14
SF-295 = test system: SF-295
MDA-MB-435 = test system: MDA-MB-435
HCT-15 = test system: HCT-15
OVCAR-3 = test system: OVCAR-3
MDA-N = test system: MDA-N
KM12 = test system: KM12
CAKI-1 = test system: CAKI-1
A549 = test system: A549
SW-620 = test system: SW-620
A498 = test system: A498
HCT-116 = test system: HCT-116
UO-31 = test system: UO-31
COLO 205 = test system: COLO 205
SF-539 = test system: SF-539
OVCAR-8 = test system: OVCAR-8
SNB-75 = test system: SNB-75

SMILES	GI50 (NCI/ADR-RES)	GI50 (SNB-19)	GI50 (ACHN)	GI50 (M14)	GI50 (SF-295)	GI50 (MDA-MB-435)	GI50 (HCT-15) [µM]	GI50 (OVCAR-3)	GI50 (MDA-N)	GI50 (KM12)	GI50 (CAKI-1)	GI50 (A549)	GI50 (SW-620)	GI50 (A498)	GI50 (HCT-116)	GI50 (UO-31)	GI50 (COLO 205)	GI50 (SF-539)	GI50 (OVCAR-8)	GI50 (SNB-75)
CC(C)(CN1CCCCC1)C(/C=C/c1ccc(Cl)cc1)=N\NC(=O)N/N=C(/C=C/c1ccc(Cl)cc1)C(C)(C)CN1CCCCC1	3.86 µM (inactive)	3.4 µM (inactive)	3.82 µM (inactive)	3.41 µM (inactive)	10 µM (inactive)	3.55 µM (inactive)	2.47	3.21 µM (inactive)	3.34 µM (inactive)	3.24 µM (inactive)	2.39 µM (inactive)	7.28 µM (inactive)	2.72 µM (inactive)	7.69 µM (inactive)	3.19 µM (inactive)	3.49 µM (inactive)	4.22 µM (inactive)	3.44 µM (inactive)	4.38 µM (inactive)	1.85 µM (inactive)
O=C1C=CC2(C=C1)O[C@H](CCc1ccccc1)[C@@H](CCc1ccccc1)O2	> 100 µM (inactive)	> 100 µM (inactive)	> 100 µM (inactive)	> 100 µM (inactive)	> 100 µM (inactive)	27.9 µM (inactive)	> 100	> 100 µM (inactive)	> 100 µM (inactive)	> 100 µM (inactive)	> 100 µM (inactive)	43.7 µM (inactive)	> 100 µM (inactive)	> 100 µM (inactive)	99.3 µM (inactive)	> 100 µM (inactive)	> 100 µM (inactive)	> 100 µM (inactive)	> 100 µM (inactive)	> 100 µM (inactive)
Cc1[nH]n(-c2nc3c(c(=O)[nH]2)CCC3)c(=O)c1CCO	> 100 µM (inactive)	> 100 µM (inactive)	> 100 µM (inactive)	> 100 µM (inactive)	> 100 µM (inactive)	> 100 µM (inactive)	> 100	> 100 µM (inactive)	> 100 µM (inactive)	> 100 µM (inactive)	> 100 µM (inactive)	> 100 µM (inactive)	> 100 µM (inactive)	> 100 µM (inactive)	> 100 µM (inactive)	> 100 µM (inactive)	> 100 µM (inactive)	> 100 µM (inactive)	> 100 µM (inactive)	0.0195 µM (active)
Cn1c(COC(=O)NC2CCCCC2)c(COC(=O)NC2CCCCC2)c2ccc3cc(Cl)c(Cl)cc3c21	53.1 µM (inactive)	11.1 µM (inactive)	14.3 µM (inactive)	16.5 µM (inactive)	22.8 µM (inactive)	17.6 µM (inactive)	12.2	15.1 µM (inactive)	12.6 µM (inactive)	15.6 µM (inactive)	2.62 µM (inactive)	48.1 µM (inactive)	6.79 µM (inactive)	12.7 µM (inactive)	7.43 µM (inactive)	28.4 µM (inactive)	11.7 µM (inactive)	14.8 µM (inactive)	28.2 µM (inactive)	8.39 µM (inactive)
[O-][n+]1c2cccc(O)c2[n+]([O-])c2cccc(O)c21	70.8 µM (inactive)	92 µM (inactive)	14.2 µM (inactive)	> 100 µM (inactive)	57.9 µM (inactive)	> 100 µM (inactive)	46.6	29.2 µM (inactive)	> 100 µM (inactive)	37.5 µM (inactive)	25.1 µM (inactive)	84.7 µM (inactive)	47.9 µM (inactive)	> 100 µM (inactive)	21.4 µM (inactive)	> 100 µM (inactive)	52.8 µM (inactive)	32.7 µM (inactive)	25.9 µM (inactive)	> 100 µM (inactive)
CO[C@H]1C[C@H](n2cc(C)c(=O)[nH]c2=O)O[C@@H]1CO	> 100 µM (inactive)	> 100 µM (inactive)	> 100 µM (inactive)	> 100 µM (inactive)	> 100 µM (inactive)	> 100 µM (inactive)	> 100	> 100 µM (inactive)	> 100 µM (inactive)	> 100 µM (inactive)	> 100 µM (inactive)	> 100 µM (inactive)	> 100 µM (inactive)	> 100 µM (inactive)	> 100 µM (inactive)	> 100 µM (inactive)	> 100 µM (inactive)	> 100 µM (inactive)	> 100 µM (inactive)	> 100 µM (inactive)
N=C(N)N/N=C/c1c(-c2ccc(Cl)cc2)nc2sccn12	5.4 µM (inactive)	4.09 µM (inactive)	1.5 µM (inactive)	1.63 µM (inactive)	1.64 µM (inactive)	1.74 µM (inactive)	2.54	1.6 µM (inactive)	1.79 µM (inactive)	1.96 µM (inactive)	3.21 µM (inactive)	1.64 µM (inactive)	1.55 µM (inactive)	3.11 µM (inactive)	1.6 µM (inactive)	2.48 µM (inactive)	1.46 µM (inactive)	1.83 µM (inactive)	1.95 µM (inactive)	1.77 µM (inactive)
O=c1[nH]nc(-c2cccc([N+](=O)[O-])c2)[nH]1	> 100 µM (inactive)	> 100 µM (inactive)	> 100 µM (inactive)	> 100 µM (inactive)	> 100 µM (inactive)	> 100 µM (inactive)	> 100	> 100 µM (inactive)	> 100 µM (inactive)	> 100 µM (inactive)	> 100 µM (inactive)	> 100 µM (inactive)	> 100 µM (inactive)	> 100 µM (inactive)	> 100 µM (inactive)	70.3 µM (inactive)	> 100 µM (inactive)	> 100 µM (inactive)	> 100 µM (inactive)	> 100 µM (inactive)
N#Cc1c(NC(=O)CCC(=O)O)ccc2ccccc12	> 100 µM (inactive)	> 100 µM (inactive)	> 100 µM (inactive)	> 100 µM (inactive)	> 100 µM (inactive)	> 100 µM (inactive)	> 100	> 100 µM (inactive)	> 100 µM (inactive)	> 100 µM (inactive)	> 100 µM (inactive)	> 100 µM (inactive)	> 100 µM (inactive)	> 100 µM (inactive)	> 100 µM (inactive)	> 100 µM (inactive)	> 100 µM (inactive)	> 100 µM (inactive)	> 100 µM (inactive)	64.1 µM (inactive)
Cc1n[nH]c(=O)n1/N=C/c1cccs1	> 100 µM (inactive)	> 100 µM (inactive)	> 100 µM (inactive)	> 100 µM (inactive)	> 100 µM (inactive)	> 100 µM (inactive)	> 100	> 100 µM (inactive)	> 100 µM (inactive)	> 100 µM (inactive)	> 100 µM (inactive)	> 100 µM (inactive)	> 100 µM (inactive)	> 100 µM (inactive)	> 100 µM (inactive)	> 100 µM (inactive)	> 100 µM (inactive)	> 100 µM (inactive)	> 100 µM (inactive)	> 100 µM (inactive)
